ChEMBL document CHEMBL1201862, “PubChem BioAssay data set” (2004)
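Following 48 hours of exposure in 96-well plates, responses at five concentrations were used to interpolate endpoints linearly. The concentration for 50% growth inhibition is given as GI50.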 The source made the active and inactive calls. Rule as the data show it: active = GI50 up to about 1.1 µM and inactive = higher.

How the values were obtained:
Assay in all cases: DTP human tumour cell line panel, 48 h
NCI-H23 = system: NCI-H23
NCI-H226 = system: NCI-H226
SK-MEL-2 = system: SK-MEL-2
DMS-273 = system: DMS-273
IGROV-1 = system: IGROV-1
SW-620 = system: SW-620
DMS-114 = system: DMS-114
M19-MEL = system: M19-MEL
OVCAR-8 = system: OVCAR-8
Malme-3M = system: Malme-3M
NCI/ADR-RES = system: NCI/ADR-RES
A549 = system: A549
A498 = system: A498
HOP-18 = system: HOP-18
SF-539 = system: SF-539
PC-3 = system: PC-3
BT-549 = system: BT-549
Hs-578T = system: Hs-578T
SR = system: SR
DU-145 = system: DU-145

Row | SMILES | GI50 (NCI-H23) | GI50 (NCI-H226) | GI50 (SK-MEL-2) | GI50 (DMS-273) | GI50 (IGROV-1) | GI50 (SW-620) | GI50 (DMS-114) | GI50 (M19-MEL) | GI50 (OVCAR-8) | GI50 (Malme-3M) | GI50 (NCI/ADR-RES) | GI50 (A549) | GI50 (A498) | GI50 (HOP-18) | GI50 (SF-539) | GI50 (PC-3) | GI50 (BT-549) | GI50 (Hs-578T) | GI50 (SR) | GI50 (DU-145)
1 | CC(=O)OC1C=C(C=O)C(O)(C=O)C2(C)CCCC(C)(C)C12 (stereo not drawn) | 1.44 µM (inactive) | 2.69 µM (inactive) | 2.86 µM (inactive) | 2.08 µM (inactive) | 2.49 µM (inactive) | 0.485 µM (active) | 0.927 µM (active) | 1.23 µM (inactive) | 1.24 µM (inactive) | 0.971 µM (active) | 1.8 µM (inactive) | 4.54 µM (inactive) | 1.28 µM (inactive) | 0.931 µM (active) | 2.4 µM (inactive) |  |  |  |  | 
2 | CCOC1CC2OC(=O)C1C=C2C(=O)OC (stereo not drawn) | 17.9 µM (inactive) | 32.7 µM (inactive) | 31.4 µM (inactive) |  | 46.6 µM (inactive) | 21.9 µM (inactive) | 20.4 µM (inactive) | 37.2 µM (inactive) |  | 20.5 µM (inactive) |  | > 100 µM (inactive) | > 100 µM (inactive) | 21.1 µM (inactive) | 24.8 µM (inactive) |  |  |  |  | 
3 | O=C1OC(c2ccccc2)=N/C1=C\c1cccnc1 | > 100 µM (inactive) | > 100 µM (inactive) | > 100 µM (inactive) |  | > 100 µM (inactive) | > 100 µM (inactive) |  |  | > 100 µM (inactive) |  | > 100 µM (inactive) | > 100 µM (inactive) |  |  | > 100 µM (inactive) | > 100 µM (inactive) | 59.8 µM (inactive) | > 100 µM (inactive) | 33 µM (inactive) | 
4 | COC(=O)[C@@H](O)[C@](O)(CCC(C)C)C(=O)O[C@@H]1C(OC)=C[C@]23CCCN2CCc2cc4c(cc2[C@H]13)OCO4 | 1.55 µM (inactive) | 1.64 µM (inactive) | 2.19 µM (inactive) | 0.585 µM (active) | 1.07 µM (active) | 2.21 µM (inactive) | 0.265 µM (active) | 1.18 µM (inactive) | 1.88 µM (inactive) | 0.459 µM (active) | 11.8 µM (inactive) | 0.951 µM (active) | 1.48 µM (inactive) | 2.46 µM (inactive) | 0.673 µM (active) |  |  |  |  | 
5 | CCCCCCCCC1=CCC(CN(C)C)C1=O (stereo not drawn) | 19.9 µM (inactive) | > 51.4 µM (inactive) | 21.3 µM (inactive) | 18.7 µM (inactive) | 19.4 µM (inactive) | 19.9 µM (inactive) | 18.7 µM (inactive) | 17.8 µM (inactive) | 17.9 µM (inactive) | 17.8 µM (inactive) | 20.5 µM (inactive) | > 100 µM (inactive) | > 43.9 µM (inactive) |  | 19.7 µM (inactive) |  |  |  |  | 
6 | CC(C)C1=CC2=CC[C@@H]3[C@](C)(CCC[C@@]3(C)C(=O)O)[C@H]2CC1 [ABIETIC ACID] | 45.3 µM (inactive) | 49.2 µM (inactive) | > 50.9 µM (inactive) | 48.1 µM (inactive) | 57.5 µM (inactive) | 45.8 µM (inactive) | 58.9 µM (inactive) | 59 µM (inactive) | > 56.9 µM (inactive) | > 67 µM (inactive) |  | 50.6 µM (inactive) | 49.8 µM (inactive) | > 75 µM (inactive) | > 70.8 µM (inactive) |  |  |  | > 100 µM (inactive) | 
7 | NC1CC(=O)c2sc(I)cc21 (stereo not drawn) |  |  | > 100 µM (inactive) |  | > 100 µM (inactive) | 53.6 µM (inactive) |  |  | > 100 µM (inactive) | > 100 µM (inactive) | > 100 µM (inactive) | > 100 µM (inactive) | > 100 µM (inactive) |  | > 100 µM (inactive) | > 100 µM (inactive) | > 100 µM (inactive) |  | 8.39 µM (inactive) | > 100 µM (inactive)
8 | N/C(=N\O)N/N=C\c1ccccc1O | 7.6 µM (inactive) | 16 µM (inactive) | 21 µM (inactive) | 4.38 µM (inactive) | 11.3 µM (inactive) | 13.1 µM (inactive) | 4.73 µM (inactive) | 16.6 µM (inactive) | 3.2 µM (inactive) | 22.4 µM (inactive) | 4.14 µM (inactive) | 6.01 µM (inactive) | 8.95 µM (inactive) | 27.2 µM (inactive) | 14.5 µM (inactive) |  |  |  |  | 
9 | CC1=COC2=C(C)C(=O)C(=O)c3c(C)ccc1c32 [MANSONONE F] | 2.84 µM (inactive) | 14.4 µM (inactive) | 5.56 µM (inactive) |  | 3.74 µM (inactive) | 2.61 µM (inactive) |  |  | 2.7 µM (inactive) | 1.69 µM (inactive) | 2.1 µM (inactive) | 2.92 µM (inactive) | 20.1 µM (inactive) |  | 3.21 µM (inactive) | 2.49 µM (inactive) | 14.2 µM (inactive) | 17.7 µM (inactive) | 3.45 µM (inactive) | 6.21 µM (inactive)
